Data on one substance can be found in patent US10034915B2, “Small heat shock proteins and active fragments thereof as a therapy for inflammation and ischemia” (The Board of Trustees of the Leland Stanford Junior …, priority 2011, dated 2018).

The test system of experiment [1] is pro-inflammatory cytokines of MOG stimulated splenocytes. Put plainly: Peripheral immune cell activation: cytokine production by MOG stimulated splenocytes of treated MOG immunized mice (ELISA). The following applies: mice treated in vivo; splenocytes from MOG immunized mice. On the set-up: species or system mouse. Here is the method:
Peripheral immune cell activation and cytokine analysis. Spleens and lymph nodes were isolated from mice 9 days after immunization with MOG35-55 and CFA. Spleens were mechanically disrupted to isolate single cell splencytes suspension. Cells were cultured in flat bottomed, 96-well plates in media (RPMI 1640 supplemented with […] L-glutamine, 1 mM sodium pyruvate, 0.1 mM non-essential amino acids, 100 U/mL penicillin, 0.1 mg/mL streptomycin, 0.5 uM 2-mercaptoethanol, and 10% fetal calf serum). Cells were stimulated with MOG35-55 (5 ug/mL, 10 ug/mL, and 20 ug/mL). For all activation assays, splenocytes were pooled from three mice per group and triplicate wells were plated. Supernatants of cells were collected at the time of peak production for each cytokine (48 hrs: IL-2, IL-12p40, IL-6; 72 hrs: TNFα and IFNγ; 96 hrs: IL-17; 120 hrs: IL-10). Cytokines were measured in the supernatants using anti-mouse OPTEIA ELISA kits (BD Pharmingen for IFNγ, IL-10, IL-2, IL-6, and IL-12p40; R&D Systems for IL-17 and TNFα).
Background: ELISA stands for enzyme-linked immunosorbent assay.

Experiment [2] relates to splenocytes stimulated with concanavalin A or LPS. Put plainly: Splenocyte cytokine response at 7 d after stroke, wild-type mice. It counts as in vivo, mouse. The following applies: vs PBS. The procedure: Effects of Cryab treatment on immune system. The effects of Cryab treatment on the splenocyte cytokine response were assessed at 7 d after stroke in wild-type mice. The total number of splenocytes in PBS and Cryab treated mice was equivalent at 7 d after stroke (data not shown). When stimulated by concanavalin A, splenocytes from Cryab treated mice produced fewer pro-inflammatory IL-2, IL-17, IFN-g, IL-12p40, IL-6 and more anti-inflammatory IL-10 than the splenocytes from PBS treated mice (FIG. 14d-i). When stimulated by LPS, Cryab-treated mice splenocytes produced fewer pro-inflammatory IL-6 and TNF than the splenocytes from PBS-treated mice (FIG. 14j, k).

Consider αB-crystallin [HSPB5], for which the “production of pro-inflammatory cytokines by MOG stimulated splenocytes” value in experiment [1] was “reduction”. Also, in experiment [2] (LPS stimulation), the “IL-6 production by splenocytes” value is recorded as “fewer” and the “TNF production by splenocytes” value was “fewer”. Further, in experiment [2] (concanavalin A stimulation), the “IFN-g production by splenocytes” value is “fewer”, the “IL-2 production by splenocytes” value was “fewer”, the “IL-6 production by splenocytes” value is recorded as “fewer” and the “IL-10 production by splenocytes” value was “more”. In addition, in experiment [2] (concanavalin A stimulation), the “IL-12p40 production by splenocytes” value is recorded as “fewer” and the “IL-17 production by splenocytes” value is listed as “fewer”. Moreover, in experiment [2], the “total number of splenocytes” value is “equivalent”.
